# Assays:
# [1] = molecular target: FGFR; test: Kinase inhibition profile, related RTK; type: biochemical; conditions: ATP concentration of 1 nM
# [2] = molecular target: IGFR (Homo sapiens, UniProt P08069); test: Kinase inhibition profile, non-related TK; type: biochemical; conditions: ATP concentration of 1 nM
# [3] = molecular target: INSR (Homo sapiens, UniProt P06213); test: Kinase inhibition profile, non-related TK; type: biochemical; conditions: ATP concentration of 1 nM
# [4] = molecular target: LYN (Homo sapiens, UniProt P07948); test: Kinase inhibition profile, non-related TK; type: biochemical; conditions: ATP concentration of 1 nM
# Sequence of LYN (P07948 whole entry): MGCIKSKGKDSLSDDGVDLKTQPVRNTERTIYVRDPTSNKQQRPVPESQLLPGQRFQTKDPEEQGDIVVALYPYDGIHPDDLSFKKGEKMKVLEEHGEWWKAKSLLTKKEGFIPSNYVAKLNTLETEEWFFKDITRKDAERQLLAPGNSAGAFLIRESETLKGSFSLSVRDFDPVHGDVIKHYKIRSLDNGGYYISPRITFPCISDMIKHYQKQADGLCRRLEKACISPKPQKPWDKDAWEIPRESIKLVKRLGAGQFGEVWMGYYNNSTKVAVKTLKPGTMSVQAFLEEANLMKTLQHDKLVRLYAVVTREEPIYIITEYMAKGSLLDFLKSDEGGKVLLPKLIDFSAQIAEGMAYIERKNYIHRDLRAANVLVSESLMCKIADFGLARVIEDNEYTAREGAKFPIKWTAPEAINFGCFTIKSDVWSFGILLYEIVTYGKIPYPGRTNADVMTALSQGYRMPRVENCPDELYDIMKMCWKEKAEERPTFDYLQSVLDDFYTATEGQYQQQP
# [5] = molecular target: FYN (Homo sapiens, UniProt P06241); test: Kinase inhibition profile, non-related TK; type: biochemical; conditions: ATP concentration of 1 nM
# Sequence of FYN (P06241 whole entry): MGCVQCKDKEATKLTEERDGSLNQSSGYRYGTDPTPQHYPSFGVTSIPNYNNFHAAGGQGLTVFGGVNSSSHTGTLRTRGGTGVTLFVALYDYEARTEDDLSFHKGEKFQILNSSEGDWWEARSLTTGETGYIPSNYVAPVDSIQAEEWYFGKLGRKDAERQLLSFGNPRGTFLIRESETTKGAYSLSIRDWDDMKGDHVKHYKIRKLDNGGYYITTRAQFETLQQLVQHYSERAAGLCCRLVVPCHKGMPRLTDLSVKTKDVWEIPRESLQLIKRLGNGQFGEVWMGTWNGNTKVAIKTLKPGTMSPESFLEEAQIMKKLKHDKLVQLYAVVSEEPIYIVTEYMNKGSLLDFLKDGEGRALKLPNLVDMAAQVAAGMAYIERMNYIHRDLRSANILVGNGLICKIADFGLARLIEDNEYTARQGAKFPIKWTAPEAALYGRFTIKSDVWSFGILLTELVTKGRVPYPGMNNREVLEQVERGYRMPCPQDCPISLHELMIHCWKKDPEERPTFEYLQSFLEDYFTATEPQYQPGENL
# [6] = system: rat OIR model; test: Preretinal neovascularization, rat OIR model, oral gavage; type: in vivo, Sprague-Dawley rats; conditions: for % Inhibition (vs vehicle-injected eye): preretinal NV
# Experimental: Immediately following euthanasia, retinas from all rat pups were harvested, fixed in 10% neutral buffered formalin for 24 hours, subjected to ADPase staining, and fixed onto slides as whole mounts. Digital images were acquired from each retinal flat mount that was adequately prepared. Computerized image analysis was used to obtain a NV clockhour score from each readable sample. Each clockhour out of 12 total per retina was assessed for the presence or absence of preretinal NV. Statistical comparisons using median scores for NV clockhours from each treatment group were utilized in nonparametric analyses. Each noninjected pup represented one NV score by taking the average value of both eyes and was used in comparisons against each dosage group. Because the pups were randomly assigned and no difference was observed between oxygen-exposed control pups from all litters, the NV scores were combined for all treatment groups. P≦0.05 was considered statistically significant.
# METHODS: Pregnant Sprague-Dawley rats were received at 14 days gestation and subsequently gave birth on Day 22±1 of gestation. Immediately following parturition, pups were pooled and randomized into separate litters (n=17 pups/litter), placed into separate shoebox cages inside oxygen delivery chamber, and subjected to an oxygen-exposure profile from Day 0 to Day 14 postpartum. Litters were then placed into room air from Day 14/0 through Day 14/6 (days 14-20 postpartum). Additionally on Day 14/0, each pup was randomly assigned as oxygen-exposed controls, vehicle treated, or drug-treated at 1.5, 5, 10 mg/kg, p.o., BID. At Day 14/6 (20 days postpartum), all animals in both studies were euthanized and retina whole mounts were prepared as described in Example 1 above.
# [7] = system: laser-induced choroidal neovascularization (CNV); test: Prevention of laser-induced CNV, intravitreal injection, mouse; type: in vivo, C57BL/6J mice; conditions: for inhibition of CNV as compared to vehicle-injected eyes: 5 ul intravitreal immediately after laser, 14 days post-laser
# Experimental: (§1) Methods. CNV was generated by laser-induced rupture of Bruch's membrane. Briefly, 4 to 5 week old male C57BL/6J mice were anesthetized using intraperitoneal administration of ketamine hydrochloride (100 mg/kg) and xylazine (5 mg/kg) and the pupils of both eyes dilated with topical ocular instillation of 1% tropicamide and 2.5% Mydfin®. One drop of topical cellulose (Gonioscopic®) was used to lubricate the cornea. A hand-held cover slip was applied to the cornea and used as a contact lens to aid visualization of the fundus. Three to four retinal burns were placed in randomly assigned eye (right or left eye for each mouse) using the Alcon 532 nm EyeLite laser with a slit 5 lamp delivery system. The laser burns were used to generate a rupture in Bruch's membrane, which was indicated ophthalmoscopically by the formation of a bubble under the retina. Only mice with laser burns that produced three bubbles per eye were included in the study. Bums were typically placed at the 3, 6, 9 or 12 o'clock positions in the posterior pole of the retina, avoiding the branch retinal arteries and veins.
# (§2) Each mouse was randomly assigned into one of the following treatment groups: noninjected controls, sham-injected controls, vehicle-injected mice, or one of three RTKi-injected groups. Control mice received laser photocoagulation in both eyes, where one eye received a sham injection, i.e. a pars plana needle puncture. […] The intravitreal injection was performed immediately after laser photocoagulation. At 14 days post-laser, all mice were anesthetized and systemically perfused with fluorescein-labeled dextran. Eyes were then harvested and prepared as choroidal flat mounts with the RPE side oriented towards the observer. All choroidal flat mounts were examined using a fluorescent microscope. Digital images of the CNV were captured, where the CNV was identified as areas of hyperfluorescence within the pigmented background. Computerized image analysis was used to delineate and measure the two dimensional area of the hyperfluorescent CNV per lesion (um^2) for the outcome measurement. The median CNV area/burn per mouse per treatment group or the mean CNV area/burn per treatment group was used for statistical analysis depending on the normality of data distribution; P≦0.05 was considered significant.
# [8] = system: laser-induced choroidal neovascularization (CNV); test: Laser-induced CNV, oral gavage, prevention paradigm, mouse; type: in vivo; conditions: for inhibition of CNV: prevention paradigm; for Mean CNV / Median CNV: prevention
# Experimental: as §1, §2
# (§3) METHODS: CNV was generated by laser-induced rupture of Bruch's membrane as described in Example 3 above. […] The mice received an oral gavage of 0, 1.5, 5, or 10 mg/kg twice per day and for 14 days post-laser. […] Oral gavage dosing was continued twice per day for 14 days post-laser. Several mice were Is euthanized at day 7 post-laser and used for controls. At 14 days post-laser, all mice were anesthetized and systemically perfused with fluorescein-labeled dextran. Eyes were then harvested and prepared as choroidal flat mounts as described in Example 3 above.
# [9] = system: existing laser-induced choroidal neovascularization (CNV); test: Laser-induced CNV, oral gavage, regression paradigm, mouse; type: in vivo; conditions: for Mean CNV / Median CNV: regression
# Experimental: as §1, §2, §3
# [10] = system: diabetes-induced retinal vascular permeability; test: Diabetes-induced retinal vascular permeability, oral gavage, STZ rat model
# Experimental: METHODS: Diabetes was induced in male Long-Evans rats with 65 mg/kg streptozotocin (STZ) after an overnight fast. […] After 2 weeks, jugular vein catheters were implanted 1 day prior to experimentation for the infusion of indicator dye. Retinal vascular permeability, RVP, was measured using Evan's blue albumin permeation (45 mg/kg) after a 2 hour circulation period.
# Sequence of IGFR (P08069 31-1367): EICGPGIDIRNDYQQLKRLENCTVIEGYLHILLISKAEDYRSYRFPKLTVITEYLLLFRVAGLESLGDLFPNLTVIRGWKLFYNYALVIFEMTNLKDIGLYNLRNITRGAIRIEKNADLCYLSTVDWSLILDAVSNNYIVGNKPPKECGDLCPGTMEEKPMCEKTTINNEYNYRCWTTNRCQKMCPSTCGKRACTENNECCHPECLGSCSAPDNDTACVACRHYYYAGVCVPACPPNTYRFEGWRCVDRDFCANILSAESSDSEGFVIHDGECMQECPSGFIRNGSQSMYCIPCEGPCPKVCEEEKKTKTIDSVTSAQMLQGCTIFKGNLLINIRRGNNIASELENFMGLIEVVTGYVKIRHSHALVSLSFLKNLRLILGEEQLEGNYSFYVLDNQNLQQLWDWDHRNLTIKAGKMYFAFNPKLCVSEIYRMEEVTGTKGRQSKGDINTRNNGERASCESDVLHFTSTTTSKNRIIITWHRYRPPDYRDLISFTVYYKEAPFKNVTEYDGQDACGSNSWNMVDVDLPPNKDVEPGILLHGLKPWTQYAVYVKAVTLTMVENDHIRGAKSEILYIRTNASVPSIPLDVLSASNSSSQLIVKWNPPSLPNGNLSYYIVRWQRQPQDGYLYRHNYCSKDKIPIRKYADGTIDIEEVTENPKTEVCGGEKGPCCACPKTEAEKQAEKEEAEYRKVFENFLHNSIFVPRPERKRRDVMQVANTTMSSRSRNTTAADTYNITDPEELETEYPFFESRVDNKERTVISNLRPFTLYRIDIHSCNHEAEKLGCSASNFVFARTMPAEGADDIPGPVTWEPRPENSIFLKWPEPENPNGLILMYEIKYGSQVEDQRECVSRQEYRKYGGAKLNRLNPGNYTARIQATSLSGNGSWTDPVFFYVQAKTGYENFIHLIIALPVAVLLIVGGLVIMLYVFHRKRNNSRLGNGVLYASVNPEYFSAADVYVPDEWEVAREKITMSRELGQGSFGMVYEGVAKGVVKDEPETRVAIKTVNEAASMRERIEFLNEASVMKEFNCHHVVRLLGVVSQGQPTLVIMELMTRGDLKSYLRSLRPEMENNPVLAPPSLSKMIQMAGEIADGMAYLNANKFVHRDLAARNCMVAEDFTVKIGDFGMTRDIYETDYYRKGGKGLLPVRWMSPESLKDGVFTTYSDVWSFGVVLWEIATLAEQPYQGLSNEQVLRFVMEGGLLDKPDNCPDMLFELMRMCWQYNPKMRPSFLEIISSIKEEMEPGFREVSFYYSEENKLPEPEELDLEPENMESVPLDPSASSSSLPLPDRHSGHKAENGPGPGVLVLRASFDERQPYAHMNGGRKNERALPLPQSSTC
# Sequence of INSR (P06213 28-1382): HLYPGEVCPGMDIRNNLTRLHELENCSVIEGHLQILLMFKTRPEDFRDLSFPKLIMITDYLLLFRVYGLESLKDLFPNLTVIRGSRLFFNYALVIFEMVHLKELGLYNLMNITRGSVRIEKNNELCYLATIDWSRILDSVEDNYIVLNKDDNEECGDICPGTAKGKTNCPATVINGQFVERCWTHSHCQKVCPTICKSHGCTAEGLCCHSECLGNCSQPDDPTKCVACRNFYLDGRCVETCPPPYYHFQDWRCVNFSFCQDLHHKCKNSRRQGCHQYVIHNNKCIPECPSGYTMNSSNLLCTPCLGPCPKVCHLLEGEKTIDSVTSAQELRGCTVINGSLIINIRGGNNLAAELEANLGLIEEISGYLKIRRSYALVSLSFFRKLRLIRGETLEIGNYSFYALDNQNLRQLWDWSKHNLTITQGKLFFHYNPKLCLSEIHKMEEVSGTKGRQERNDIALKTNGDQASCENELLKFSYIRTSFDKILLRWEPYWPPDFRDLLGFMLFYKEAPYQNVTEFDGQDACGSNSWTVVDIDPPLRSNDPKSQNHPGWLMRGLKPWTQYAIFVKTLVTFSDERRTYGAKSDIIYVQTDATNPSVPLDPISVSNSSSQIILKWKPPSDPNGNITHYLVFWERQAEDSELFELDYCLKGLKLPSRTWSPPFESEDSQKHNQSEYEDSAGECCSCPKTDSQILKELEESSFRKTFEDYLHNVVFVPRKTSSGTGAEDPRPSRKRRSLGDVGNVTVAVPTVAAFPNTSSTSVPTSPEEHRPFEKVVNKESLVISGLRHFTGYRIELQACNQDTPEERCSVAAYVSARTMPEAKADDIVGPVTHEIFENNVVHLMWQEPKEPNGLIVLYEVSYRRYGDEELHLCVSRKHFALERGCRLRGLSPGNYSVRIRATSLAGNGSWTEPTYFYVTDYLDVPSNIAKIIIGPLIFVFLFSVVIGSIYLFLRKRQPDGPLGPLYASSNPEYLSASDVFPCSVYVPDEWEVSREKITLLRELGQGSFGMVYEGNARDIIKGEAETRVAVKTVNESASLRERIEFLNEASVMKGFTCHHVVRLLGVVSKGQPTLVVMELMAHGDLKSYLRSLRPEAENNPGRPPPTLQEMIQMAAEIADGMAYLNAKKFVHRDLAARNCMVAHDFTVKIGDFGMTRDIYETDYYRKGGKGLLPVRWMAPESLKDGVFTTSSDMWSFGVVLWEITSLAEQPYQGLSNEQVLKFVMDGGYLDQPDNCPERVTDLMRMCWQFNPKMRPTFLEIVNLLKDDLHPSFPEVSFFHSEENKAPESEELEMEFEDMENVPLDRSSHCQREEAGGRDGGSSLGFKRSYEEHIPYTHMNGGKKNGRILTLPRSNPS
compound,measurement,setting,value
"Cc1ccc(F)c(NC(=O)Nc2ccc(-c3cccc4[nH]nc(N)c34)cc2)c1 [AL-39324, N-[4-[3-amino-1H-indazol-4-yl)phenyl]-N′-(2-fluoro-5-methylphenyl)urea]",IC50,[1],> 12.5 µM
same,IC50,[2],> 50 µM
same,IC50,[3],> 50 µM
same,IC50,[4],> 20 µM
same,IC50,[5],> 50 µM
same,Median NV,"[6]; 3 mg/kg in PEG 400, p.o.",7.5
same,NV Range,"[6]; 3 mg/kg in PEG 400, p.o.",3.8-9.8
same,% Inhibition (vs vehicle-injected eye),"[6]; 3 mg/kg in PEG 400, p.o. (per day, BID)",−1.4%
same,decrease in NV,[6]; 3 mg/kg/day p.o.,did not have a significant decrease in NV
same,Median NV,"[6]; 10 mg/kg in PEG 400, p.o.",1.105
same,NV Range,"[6]; 10 mg/kg in PEG 400, p.o.",0-8
same,% Inhibition (vs vehicle-injected eye),"[6]; 10 mg/kg in PEG 400, p.o. (per day, BID)",86.4%
same,Median NV,"[6]; 20 mg/kg in PEG 400, p.o.",0
same,NV Range,"[6]; 20 mg/kg in PEG 400, p.o.",0
same,% Inhibition (vs vehicle-injected eye),"[6]; 20 mg/kg in PEG 400, p.o. (per day, BID)",100%
same,inhibition of preretinal NV,[6]; 20 mg/kg/day p.o.,complete inhibition of preretinal NV
same,CNV versus vehicle injected eyes,"[7]; 0.3%, 5 ul intravitreal",marginal statistical difference
same,mean±s.d. CNV area/burn per mouse,"[7]; 0.3%, 5 ul intravitreal",44283±28886 um^2
same,median CNV area/burn per mouse,"[7]; 0.3%, 5 ul intravitreal",38891 um^2
same,mean±s.d. CNV area/burn per mouse,"[7]; 1%, 5 ul intravitreal",21036±3100 um^2
same,median CNV area/burn per mouse,"[7]; 1%, 5 ul intravitreal",21122 um^2
same,inhibition of CNV as compared to vehicle-injected eyes,[7]; 1%,84.1%
same,mean±s.d. CNV area/burn per mouse,"[7]; 3%, 5 ul intravitreal",27288±12109 um^2
same,median CNV area/burn per mouse,"[7]; 3%, 5 ul intravitreal",22665 um^2
same,inhibition of CNV as compared to vehicle-injected eyes,[7]; 3%,83.0%
same,inhibition of CNV,[8]; 3 mg/kg/day oral gavage,no significant inhibition
same,Mean CNV,[8]; 3 mg/kg/day oral,21670 μm^2
same,Median CNV,[8]; 3 mg/kg/day oral,22317 μm^2
same,inhibition of CNV,[8]; 10 mg/kg/day oral gavage,84.3%
same,Mean CNV,[8]; 10 mg/kg/day oral,4046 μm^2
same,Median CNV,[8]; 10 mg/kg/day oral,4137 μm^2
same,inhibition of CNV,[8]; 20 mg/kg/d oral gavage,complete inhibition of CNV
same,Mean CNV,[8]; 20 mg/kg/day oral,3266 μm^2
same,Median CNV,[8]; 20 mg/kg/day oral,0 μm^2
same,regression of existing CNV,[9]; 3 mg/kg/day oral from day 7 post-laser,did not show a significant regression of existing CNV
same,Mean CNV,[9]; 3 mg/kg/day oral,35442 μm^2
same,Median CNV,[9]; 3 mg/kg/day oral,33967 μm^2
same,regression of existing CNV as compared to nontreated controls,[9]; 10 mg/kg/day oral from day 7 post-laser,41.8%
same,Mean CNV,[9]; 10 mg/kg/day oral,29773 μm^2
same,Median CNV,[9]; 10 mg/kg/day oral,27389 μm^2
same,regression of existing CNV as compared to nontreated controls,[9]; 20 mg/kg/day oral from day 7 post-laser,68.0%
same,Mean CNV,[9]; 20 mg/kg/day oral,15706 μm^2
same,Median CNV,[9]; 20 mg/kg/day oral,15036 μm^2
same,RVP,[10]; NDM treated at 5 mg/kg/d,unchanged
same,"Blood glucose levels and body weights, DM control vs DM treatment groups","[10]; oral, DM rats",not different
same,"tolerability, systemic or ERG side effects","[10]; oral, NDM and DM groups",well tolerated by both NDM and DM groups with no observed systemic or ERG side effects
